Viability data for 74 compounds are collected here from PMC12040169 (PLOS Biology, 2025).

A short description of one data set: in vitro. To be noted: human, hela cells, % viability.
For orientation: viability means a read-out of living cells in per cent, often relative to untreated cells. For the compound `N#C/C(=C/c1cn(CC(=O)O)c2ccccc12)c1ccc(C(=O)O)cc1` [CBK268977], the viability at 28.5 h, 10 µM was found to be 111%. Same read-out and setting: for `NC(=O)CC1C(=O)N(c2ccc(F)cc2)C(=S)N1NC(=O)CCc1ccccc1` (centres unmarked) [CBK268978A] the value was 108%; for `Cc1occc1-c1nnc(SCC(=O)Nc2cccc3nsnc23)o1` [CBK268979], 89.5%; for `Cc1ccc(NC(=O)C2CC=CCC2C(=O)O)cc1NC(=O)c1ccc(Cl)cc1` (centres unmarked) [CBK268980], 92.6%. The same measure, in the same setting: to `Cc1nn(CCCC(=O)Nc2sc3c(c2C#N)CCC(C(C)(C)C)C3)c(C)c1[N+](=O)[O-]` (centres unmarked) [CBK268982] belongs 103%. The same measure, in the same setting: for `Cc1cc(-c2nnc(SCC(=O)N3CCOCC3)o2)no1` [CBK268984] the value was 103%; for `O=C(O)CCc1ccc(-c2ccc(F)cc2)n1CC1CCCO1` (centres unmarked) [CBK268988], 86.5%; for `COc1ccc(N2CCN(CC(=O)N3CCC(C(N)=O)CC3)CC2)cc1` [CBK268993], 96.6%.

For the compound `CS(=O)(=O)N(CC(=O)Nc1ccc(S(=O)(=O)N2CCCC2)cc1)c1ccc2c(c1)OCO2` [CBK268995], the viability at 28.5 h, 10 µM stood at 97.7%. The same measure, in the same setting: for `N#Cc1ccccc1CSc1nc(N2CCOCC2)nc(N2CCOCC2)n1` [CBK268998] the value was 92.3%. On the same count and under the same terms, to `CN1CCN(C(=O)C2CCCN(S(=O)(=O)c3ccc(Br)cc3)C2)CC1` (centres unmarked) [CBK269006] belongs 107%. The same measure, in the same setting: to `O=C(CSc1nnc(-c2cc(Br)ccc2O)[nH]1)NCCc1ccccc1` [CBK269007] belongs 85.8%. Take `COc1cc(C2c3c(-c4cc(C)c(C)cc4O)n[nH]c3C(=O)N2CCO)cc(Br)c1O` (centres unmarked) [CBK269009]: the viability at 28.5 h, 10 µM worked out at 112%. Consider `CCn1c2ccccc2c2cc(NC(=O)CSc3nnc(-c4ccoc4C)o3)ccc21` [CBK269010], for which the viability at 28.5 h, 10 µM was 105%. The same measure, in the same setting: to `Cc1cc(C)n2nc(C(=O)NCc3ccccn3)cc2n1` [CBK269015] belongs 89.3%; to `CC(C)(C)c1ccc(O)c(NC(=S)NC(=O)c2cccc(OCc3ccccc3)c2)c1` [CBK269018], 97.3%; to `COc1cc(C2NC(=O)N(CCc3ccccc3)C(c3ccccc3)=C2C(C)=O)ccc1O` (centres unmarked) [CBK269024], 108%. Regarding `CCOC(=O)c1cnc(SCC(=O)N2c3ccccc3SC3C=CC=CC32)nc1N` (centres unmarked) [CBK269029], the viability at 28.5 h, 10 µM is 99.6%. `Cc1cccc(OCc2nnc(SCc3nc4ccccc4c(=O)[nH]3)o2)c1` [CBK269030]: the viability at 28.5 h, 10 µM is 98.7%. Consider `O=S(=O)(N1CCCCC1)N1CCN(CC(O)COc2ccc3cc(Br)ccc3c2)CC1` (centres unmarked) [CBK269032], for which the viability at 28.5 h, 10 µM turned out to be 106%. `NC(=O)CC1C(=O)N(c2ccc(F)cc2)C(=O)N1NC(=O)CCc1ccccc1` (centres unmarked) [CBK269033]: the viability at 28.5 h, 10 µM was 104%.

Consider `O=C(Nc1ccncc1)c1ccc2nc[nH]c2c1` [CBK269034], for which the viability at 28.5 h, 10 µM was 93.2%. For the compound `Cc1cc(N2C(=O)CC(N3CCC(C(=O)N4CCOCC4)CC3)C2=O)no1` (centres unmarked) [CBK269035], the viability at 28.5 h, 10 µM was 92.6%. Still for that read-out and setting: to `CN(C)c1nc(N(C)C)nc(N(C#N)S(=O)(=O)c2ccccc2Cl)n1` [CBK269036] belongs 88.3%; to `COc1cc(C(=S)N2CCN(C)CC2)ccc1OCC(N)=O` [CBK269037], 84.7%; to `O=C(NC(=S)Nc1ccc(-c2ccc(CO)o2)cc1)c1ccc2c(c1)OCCO2` [CBK269038], 82.9%.

As to `Cc1ccc(N(CC(=O)NCC2CCCO2)S(=O)(=O)c2ccc(Cl)cc2)cc1` (centres unmarked) [CBK269039], the viability at 28.5 h, 10 µM is 104%. On the same count and under the same terms, to `Cc1occc1-c1nnc(SCC(=O)Nc2c(C)n(C)n(-c3ccccc3)c2=O)o1` [CBK269042] belongs 90.9%; to `CC(=O)c1ccc(NC(=O)CSc2nc(O)cc(-c3ccccc3)n2)cc1` [CBK269048], 96%.

In the case of `O=C(O)c1ccccc1-c1ccc(-c2cc(C(=O)O)c3cc(F)ccc3n2)o1` [CBK269051], the viability at 28.5 h, 10 µM amounted to 98.8%. The same measure, in the same setting: to `O=C(COc1ccc(S(=O)(=O)N2CCCCC2)cc1)NCc1ccncc1` [CBK269053] belongs 92.5%. Same read-out and setting: for `CCCSc1ncc(Cl)c(C(=O)Nc2ccc(S(=O)(=O)N3CC(C)OC(C)C3)cc2)n1` (centres unmarked) [CBK269055] the value was 100%.

`COc1ccccc1-c1noc(CSc2nnc(-c3ccccc3)n2-c2ccc(C)c(C)c2)n1` [CBK269058]: the viability at 28.5 h, 10 µM is 105%. Same read-out and setting: to `Cc1cc(C)cc(N(C(C)C(=O)N2CCN(Cc3ccc4c(c3)OCO4)CC2)S(C)(=O)=O)c1` (centres unmarked) [CBK269060] belongs 90.3%; to `O=C(CSc1nnc(Cc2ccccc2)n1-c1ccc(Cl)cc1)Nc1cc(Cl)ccc1O` [CBK269061], 99.9%. Same read-out and setting: to `COc1cccc(/C=C\c2onc(C)c2[N+](=O)[O-])c1OCC(=O)O` [CBK269063] belongs 104%; to `CSc1ncc(Cl)c(C(=O)Nc2nc(-c3ccc(S(=O)(=O)N4CCOCC4)cc3)cs2)n1` [CBK269064], 102%; to `Cc1ccc(OC(C)C(=O)NNC(=O)c2ccc([N+](=O)[O-])cc2)cc1` (centres unmarked) [CBK269065], 104%.

Turning to `CCN1CCN(c2c(Cl)cccc2NC(=O)c2ccc(N3CCOCC3)c([N+](=O)[O-])c2)CC1` [CBK269066], the viability at 28.5 h, 10 µM is 98.8%. Same read-out and setting: for `O=S(=O)(N1CCOCC1)N1CCCN(S(=O)(=O)N2CCOCC2)CC1` [CBK269068] the value was 103%; for `Cc1ccc(-n2c(SCC(=O)N3CCCCC3)nnc2-c2cc(Br)ccc2O)c(C)c1` [CBK269070], 94.7%; for `O=C(c1ccncc1)c1ccc(N2CCN(C3CC(=O)N(Cc4cccs4)C3=O)CC2)cc1` (centres unmarked) [CBK269074], 94.6%. The same measure, in the same setting: to `CCOc1ccccc1-c1noc(CSc2nnc(-c3ccncc3)n2-c2cccc(C)c2)n1` [CBK269076] belongs 104%. `O=C(CSc1nc(Nc2ccccc2)nc(N2CCOCC2)n1)N1CCN(c2ccccc2)CC1` [CBK269078]: the viability at 28.5 h, 10 µM worked out at 98.5%. With `CN1CCN(c2ccc(NC(=O)c3ccc(OCc4ccccc4)cc3)cc2Cl)CC1` [CBK269080], the viability at 28.5 h, 10 µM turned out to be 96.2%.

Take `CN(C)S(=O)(=O)N(CC(=O)NCc1ccccc1Cl)c1ccccc1` [CBK269081]: the viability at 28.5 h, 10 µM came out at 103%. As for `Cc1nc(NC(=N)Nc2ccccc2C(F)(F)F)[nH]c(=O)c1Cc1ccccc1` [CBK269083], the viability at 28.5 h, 10 µM was determined as 99.8%. Same read-out and setting: to `Cc1ccc(OCCn2c(=N)n(CCN3CCOCC3)c3ccccc32)cc1` [CBK269085B] belongs 97.9%. The same measure, in the same setting: for `CNC(=O)c1c(NC(=O)c2nc(SCc3ccccc3)ncc2Cl)sc2c1CCCC2` [CBK269087] the value was 93.9%.

On to `Clc1ccccc1-c1nnc(Cn2c3ccc(Br)cc3c3nc4ccccc4nc32)o1` [CBK269091], for which the viability at 28.5 h, 10 µM stood at 88.5%. The same measure, in the same setting: to `Cn1c(=O)c2[nH]c(-c3ccc(OCC(=O)NCCc4ccccc4)cc3)nc2n(C)c1=O` [CBK269092] belongs 97.9%.

In the case of `O=C(CCn1cnc2ccccc21)NNC(=O)Nc1cccc(C(F)(F)F)c1` [CBK269093], the viability at 28.5 h, 10 µM was 93.9%. Same read-out and setting: to `O=C(c1ccccc1[N+](=O)[O-])n1nc(-c2cccnc2)nc1NCc1cccs1` [CBK269094] belongs 99.5%; to `O=C(Cc1ccccc1)N1CCN(S(=O)(=O)N2CCCCC2)CC1` [CBK269097], 85.2%. On the same count and under the same terms, to `COc1ccc(S(=O)(=O)N(C)c2ccc(C(=O)NCc3ccccn3)cc2)cc1` [CBK269099] belongs 88.1%; to `CC(=O)c1c(C)nn(C(C)CC(=O)O)c1C` (centres unmarked) [CBK269101], 103%; to `C=CCn1c(SCC(=O)Nc2cc(Cl)ccc2O)nnc1-c1ccccc1O` [CBK269102], 100%.

With `CN(C)CCCn1c(=O)[nH]c2sc3c(c2c1=N)CC(C)(C)OC3` [CBK269103], the viability at 28.5 h, 10 µM was determined as 107%. Still for that read-out and setting: to `CSc1nsc(SCC(=O)c2ccc(Oc3ccccc3)cc2)n1` [CBK269104] belongs 96.8%; to `Cc1cc2nc(/C(C#N)=C/c3cc(C)n(-c4ccc(C(=O)O)cc4)c3C)[nH]c2cc1C` [CBK269105], 92.1%; to `Cc1cc2ncc(-c3[nH]ncc3[N+](=O)[O-])cn2n1` [CBK269106], 98.1%. Still for that read-out and setting: for `O=C(CSc1nc(N2CCOCC2)nc(N2CCOCC2)n1)c1ccc([N+](=O)[O-])cc1` [CBK269107] the value was 86.9%; for `Cc1c(Br)c([N+](=O)[O-])nn1C(C)C(=O)NCc1ccco1` (centres unmarked) [CBK269108], 92.2%; for `CCOc1ccc2nc(NC(=O)c3nc(SCc4ccccc4)ncc3Cl)sc2c1` [CBK269109], 97.1%. Same read-out and setting: to `Cc1ccc(C)c(NS(=O)(=O)c2cc(C(=O)NCc3ccccn3)ccc2C)c1` [CBK269110] belongs 98.3%; to `Cc1c(Cl)c([N+](=O)[O-])nn1CCCC(=O)Nc1sc2c(c1C#N)CCC(C(C)(C)C)C2` (centres unmarked) [CBK269111], 108%. Regarding `Cc1ccc(-n2c(SCC(=O)N3CCOCC3)nnc2-c2ccccc2O)c(C)c1` [CBK269112], the viability at 28.5 h, 10 µM was 88.1%. As to `Cc1ccc(C(C)C)c(OC(=O)c2ccc3nccnc3c2)c1` [CBK269114], the viability at 28.5 h, 10 µM is 62.7%. In the case of `O=S1(=O)N=C(Nc2ccc(S(=O)(=O)N3CCOCC3)cc2)c2ccccc21` [CBK269116], the viability at 28.5 h, 10 µM is 91%. On the same count and under the same terms, to `O=C(O)CCC(=O)N1CCN(c2ccc(C(=O)c3ccc(F)cc3)cc2)CC1` [CBK269119] belongs 112%; to `Cc1ccc(NS(=O)(=O)c2ccc(OCC(=O)Nc3ccccc3C(F)(F)F)cc2)cc1` [CBK269120], 86.4%. Consider `COc1ccc(-n2c(SCCCN3C(=O)c4cccc5cccc(c45)C3=O)nnc2-c2ccncc2)cc1` [CBK269123], for which the viability at 28.5 h, 10 µM stood at 94.2%. Take `COc1ccc(C(CC(=O)O)NC(=O)c2ccc(Cl)cc2Cl)cc1` (centres unmarked) [CBK269131]: the viability at 28.5 h, 10 µM amounted to 91.8%.

The same data set, now with this note: human, hela cells, % viability, bulk resorufin, single well.
Turning to `Cc1cccc(N2C(=O)NC(=O)C(CCc3ccccn3)(CCc3ccccn3)C2=O)c1C` [CBK269075], the viability at 28.5 h, 10 µM stood at 91.7%.
